Test results: publication PMC5030124 (Nature chemical biology, 2016)

Experiments:
[1] = tested on: AR recruitment to KLK3 and NKX3-1 regulatory regions in LNCaP-AR cells; assay: Chromatin immunoprecipitation assay, LNCaP-AR cells; format: cell-based; conditions: Enz 10 μM, Bic 10 μM, 10 20 μM, R1881 0.1 nM
[2] = tested on: nuclear AR in HEK293 cells expressing wt-AR; assay: Cellular fractionation assay, HEK293 cells expressing wt-AR; format: cell-based; conditions: 4 hours, R1881 0.1 nM
[3] = tested on: AR subcellular distribution in VCaP cells; assay: High content imaging of AR N/C ratio, VCaP cells; conditions: R1881 0.1 nM, Enz 20 μM, 10 20 μM
[4] = tested on: AR subcellular distribution in HEK293 cells expressing wt-AR; assay: High content imaging of AR N/C ratio, HEK293 cells expressing wt-AR; conditions: R1881 0.1 nM, Enz 20 μM, 10 20 μM
[5] = tested on: AR target gene expression in LNCaP-AR cells; assay: Real-time PCR of AR target genes in LNCaP-AR cells; format: cell-based; conditions: CBs 20 μM, Enz 10 μM; for AR target gene expression, absence of R1881: Bic 10 μM
in vivo = conditions: NSG, mouse, ip
LNCaP-AR cells = assay: Prostate cancer cell proliferation assay, LNCaP-AR; conditions: 7 days, increasing doses, no R1881

| SMILES | recruitment of AR to DNA (ChIP) [1] | AR in nuclear and cytoplasmic fractions [2] | AR nuclear-to-cytoplasmic (N/C) ratio [3] | AR nuclear-to-cytoplasmic (N/C) ratio [4] | AR target gene expression, absence of R1881 [5] | AR target gene expression, presence of R1881 ([5]; R1881 0.1 nM) | MTD (in vivo) [mg/kg] | cell growth of LNCaP-AR cells (LNCaP-AR cells) |
| --- | --- | --- | --- | --- | --- | --- | --- | --- |
| C[C@]1(O)CC[C@H]2[C@@H]3CCC4=CC(=O)CCC4=C3C=C[C@@]21C [R1881] | facilitated AR recruitment to DNA | movement of AR from the cytoplasmic to nuclear fraction | increase in AR nuclear-to-cytoplasmic (N/C) ratio | increase in AR nuclear-to-cytoplasmic (N/C) ratio |  |  |  |  |
| CNC(=O)c1ccc(N2C(=S)N(c3ccc(C#N)c(C(F)(F)F)c3)C(=O)C2(C)C)cc1F [Enz, enzalutamide] | without effect |  |  |  | did not promote AR target gene transcription | reversed androgen-stimulated gene expression | 15 | without effect |
| CC(O)(CS(=O)(=O)c1ccc(F)cc1)C(=O)Nc1ccc(C#N)c(C(F)(F)F)c1 (stereo not drawn) [Bic, bicalutamide] | facilitated AR recruitment to DNA |  |  |  | partial agonist |  |  | promoted cellular proliferation |
